Measurements published in ChEMBL document CHEMBL1201862, “PubChem BioAssay data set” (2004).
The source made the active and inactive calls.

Experiments:
BJ [1] = assay: cytotoxicity toward BJ-TERT-LT-ST fibroblasts, dose response, cell-based, RAS-independent, luminescence (AID 1935); format: functional; conditions: Homo sapiens;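 also: BJ fibroblasts immortalized with TERT plus LT and ST oncogenes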
BJ [2] = assay: cells; format: functional, cell-based, Homo sapiens; conditions: Homo sapiens, BJ
BJ [3] = assay: cytotoxicity toward BJ-TERT fibroblasts, dose response, cell-based, RAS-independent, luminescence (AID 1933); format: functional; conditions: Homo sapiens
[4] = target: Peroxisome proliferator-activated receptor gamma/Nuclear receptor coactivator 2 (Homo sapiens, UniProt P37231); format: functional;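 also: agonist potency for raising coactivator recruitment to the receptor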
[5] = inhibitors of SNCA 5'UTR-driven reporter translation, confirmation, H4 neuroglioma cells, luminescence (AID 1988); format: functional, cell-based
[6] = target: Peroxisome proliferator-activated receptor gamma/Nuclear receptor coactivator 3 (Homo sapiens, UniProt P37231); format: functional;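 also: agonist potency for raising coactivator recruitment to the receptor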
[7] = Luminescence Cell-Based Dose Response HTS to Identify Inhibitors of 5'UTR Stem-Loop Driven Prion Protein mRNA Translation in H4 Neuroglioblastoma Cells. [Related pubchem assays: 1827 (Project Summary), 1813 (Primary HTS)]; format: functional
[8] = cytotoxicity toward DRD oncogenic fibroblasts, dose response, cell-based, non-viral oncogenic, luminescence (AID 1934); format: functional; conditions: Homo sapiens
[9] = target: Peroxisome proliferator-activated receptor gamma/Nuclear receptor coactivator 1 (Homo sapiens, UniProt P37231); format: functional;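 also: agonist potency as compounds enhance coactivator SRC-1 recruitment to PPARgamma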
Cytochrome P450 3A4 = Cytochrome P450 3A4 (Homo sapiens, UniProt P08684);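 also: CYP3A4 tested as one member of a cytochrome P450 panel screen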
Cytochrome P450 3A4, sequence (P08684 whole entry): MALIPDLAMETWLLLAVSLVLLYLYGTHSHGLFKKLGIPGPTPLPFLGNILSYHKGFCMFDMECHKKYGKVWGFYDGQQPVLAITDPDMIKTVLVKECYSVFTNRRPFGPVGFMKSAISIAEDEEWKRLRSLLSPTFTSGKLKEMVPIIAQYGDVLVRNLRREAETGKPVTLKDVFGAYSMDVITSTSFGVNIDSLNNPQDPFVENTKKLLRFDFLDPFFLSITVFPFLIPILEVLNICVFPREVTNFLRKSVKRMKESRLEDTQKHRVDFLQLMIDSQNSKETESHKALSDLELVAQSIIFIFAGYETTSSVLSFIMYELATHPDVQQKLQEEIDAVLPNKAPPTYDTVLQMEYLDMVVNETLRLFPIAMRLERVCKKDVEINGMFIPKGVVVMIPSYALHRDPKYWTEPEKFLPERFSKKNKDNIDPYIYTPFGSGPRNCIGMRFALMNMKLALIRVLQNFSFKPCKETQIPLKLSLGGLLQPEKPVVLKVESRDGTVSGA

Paired box protein Pax-8 = Paired box protein Pax-8 (Homo sapiens, UniProt Q06710); assay: inhibitors of PAX8-driven TPO luciferase reporter, dose response, RMG-I cells, cherry-pick (AID 687027); format: functional, cell-based;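 also: luciferase reporter driven by Pax8 target thyroperoxidase promoter measured by SteadyGlo luminescence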
Paired box protein Pax-8, sequence (Q06710 whole entry): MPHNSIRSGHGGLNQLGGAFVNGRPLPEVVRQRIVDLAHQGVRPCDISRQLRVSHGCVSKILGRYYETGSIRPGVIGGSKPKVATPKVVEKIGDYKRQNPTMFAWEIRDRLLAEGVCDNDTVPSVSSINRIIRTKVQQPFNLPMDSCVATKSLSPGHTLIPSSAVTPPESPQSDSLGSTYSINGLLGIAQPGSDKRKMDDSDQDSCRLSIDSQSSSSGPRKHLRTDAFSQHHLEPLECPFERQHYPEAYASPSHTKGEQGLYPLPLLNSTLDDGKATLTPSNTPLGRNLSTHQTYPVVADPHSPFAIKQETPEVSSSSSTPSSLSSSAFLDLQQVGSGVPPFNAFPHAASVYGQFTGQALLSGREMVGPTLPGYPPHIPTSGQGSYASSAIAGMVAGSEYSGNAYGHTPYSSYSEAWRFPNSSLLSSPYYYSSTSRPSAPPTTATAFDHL

[10] = inhibitors of firefly luciferase expression or activity, dose response, H4 neuroglioma cells, luminescence (AID 1990); format: functional, cell-based
BJ [11] = assay: cytotoxicity toward Ras-transformed BJeLR fibroblasts, dose response, cell-based, alamar blue fluorescence, cherrypicked samples (AID 2631); format: functional; conditions: Homo sapiens;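 also: confirmatory dose-response assay in RAS-dependent BJ fibroblasts engineered with TERT, LT and ST, with cytotoxicity read by fluorescence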
[12] = target: T1, Zinc finger protein mex-5 (Caenorhabditis elegans, UniProt Q9XUB2); assay: MEX-5/TCR-2 RNA interaction inhibitors, dose response, biochemical, C. elegans, fluorescence polarization (AID 1960)
T1 sequence (Q9XUB2 whole entry): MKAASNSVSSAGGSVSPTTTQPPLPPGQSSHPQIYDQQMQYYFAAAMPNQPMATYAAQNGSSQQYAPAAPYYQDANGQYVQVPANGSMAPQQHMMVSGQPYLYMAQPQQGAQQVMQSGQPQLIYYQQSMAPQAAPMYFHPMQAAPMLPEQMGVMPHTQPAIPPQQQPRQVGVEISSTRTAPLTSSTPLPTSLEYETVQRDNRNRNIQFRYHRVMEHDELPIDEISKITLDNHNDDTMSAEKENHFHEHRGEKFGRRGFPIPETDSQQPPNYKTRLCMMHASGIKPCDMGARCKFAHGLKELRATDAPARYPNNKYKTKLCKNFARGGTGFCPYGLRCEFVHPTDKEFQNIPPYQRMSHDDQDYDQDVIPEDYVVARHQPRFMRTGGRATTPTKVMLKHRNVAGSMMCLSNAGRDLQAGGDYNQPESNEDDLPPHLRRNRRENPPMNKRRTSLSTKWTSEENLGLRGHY

[13] = target: T2, RNA-binding protein pos-1 (Caenorhabditis elegans, UniProt G5EF15); assay: inhibitors of POS-1/mex-3 RNA binding, dose response, biochemical, fluorescence polarization (AID 1964);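 also: purified POS-1 fused to maltose binding protein made in E. coli; potency of compounds blocking POS-1 binding to fluorescent RNA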
T2 sequence (G5EF15 whole entry): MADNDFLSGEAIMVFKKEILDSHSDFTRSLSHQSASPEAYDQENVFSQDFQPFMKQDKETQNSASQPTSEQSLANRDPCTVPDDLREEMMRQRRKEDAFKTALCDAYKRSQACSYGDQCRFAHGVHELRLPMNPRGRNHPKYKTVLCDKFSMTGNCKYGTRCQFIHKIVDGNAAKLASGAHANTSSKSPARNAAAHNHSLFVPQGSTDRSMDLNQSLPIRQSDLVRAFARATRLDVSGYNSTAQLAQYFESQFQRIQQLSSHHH

[14] = target: T3, Sentrin-specific protease 1 (Homo sapiens, UniProt Q9P0U3); assay: Dose response confirmation of small molecule inhibitors of the catalytic domain of the SUMO protease, SENP1 in a FRET assay.; format: functional; conditions: read-out: IC50_Mean
T3 sequence (Q9P0U3 whole entry): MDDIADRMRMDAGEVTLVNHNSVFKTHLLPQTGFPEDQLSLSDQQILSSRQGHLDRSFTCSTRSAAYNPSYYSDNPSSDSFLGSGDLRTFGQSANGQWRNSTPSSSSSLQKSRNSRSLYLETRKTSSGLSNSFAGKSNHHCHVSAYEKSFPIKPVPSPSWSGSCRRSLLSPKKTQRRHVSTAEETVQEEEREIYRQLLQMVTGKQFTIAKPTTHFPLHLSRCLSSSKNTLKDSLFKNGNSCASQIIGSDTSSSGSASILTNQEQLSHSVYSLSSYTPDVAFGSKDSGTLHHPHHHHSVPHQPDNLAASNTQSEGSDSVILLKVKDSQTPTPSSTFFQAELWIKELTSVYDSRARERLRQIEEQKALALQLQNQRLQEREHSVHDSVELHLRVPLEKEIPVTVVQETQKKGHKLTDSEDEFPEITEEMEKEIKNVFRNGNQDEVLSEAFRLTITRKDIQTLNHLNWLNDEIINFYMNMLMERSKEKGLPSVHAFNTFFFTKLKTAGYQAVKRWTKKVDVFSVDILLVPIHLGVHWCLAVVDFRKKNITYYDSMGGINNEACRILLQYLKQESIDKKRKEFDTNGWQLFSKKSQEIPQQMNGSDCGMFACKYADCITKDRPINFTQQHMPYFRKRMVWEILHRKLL

[15] = target: T4, Oxysterols receptor LXR-beta (Homo sapiens, UniProt P55055); format: functional, cell-based;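 also: agonist activity at LXR measured by a cell-based luminescence readout across a dose range, run as a counterscreen for daf-12 agonists; HEK293 cells with Gal4-LXR fusion and GAL4-driven luciferase reporter; potency for activation of Gal4-LXR reporter so compounds are agonists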
T4 sequence (P55055 whole entry): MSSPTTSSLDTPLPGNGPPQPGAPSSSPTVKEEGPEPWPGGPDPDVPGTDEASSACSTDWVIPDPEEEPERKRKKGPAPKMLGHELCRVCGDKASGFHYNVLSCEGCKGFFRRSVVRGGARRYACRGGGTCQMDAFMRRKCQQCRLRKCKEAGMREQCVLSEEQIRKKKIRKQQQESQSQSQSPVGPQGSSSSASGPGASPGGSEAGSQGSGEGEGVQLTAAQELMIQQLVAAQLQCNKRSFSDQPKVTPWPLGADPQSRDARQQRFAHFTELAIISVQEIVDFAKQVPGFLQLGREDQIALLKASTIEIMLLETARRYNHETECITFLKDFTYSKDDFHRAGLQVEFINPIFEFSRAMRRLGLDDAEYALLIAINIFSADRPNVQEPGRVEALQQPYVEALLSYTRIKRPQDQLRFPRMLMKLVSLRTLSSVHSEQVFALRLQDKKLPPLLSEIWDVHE

Protein Wnt-3a = Protein Wnt-3a (Mus musculus, UniProt P27467); assay: Wnt3a-driven reporter signaling inhibition, dose response, selectivity assay for Gli-SUFU antagonist project, Wnt-LIGHT cells, luminescence (AID 651570); format: functional; conditions: read-out: IC50_Mean;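 also: Wnt-LIGHT reporter cells stimulated with conditioned medium from Wnt3a-producing cells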
Protein Wnt-3a, sequence (P27467 whole entry, the tested form may be a part): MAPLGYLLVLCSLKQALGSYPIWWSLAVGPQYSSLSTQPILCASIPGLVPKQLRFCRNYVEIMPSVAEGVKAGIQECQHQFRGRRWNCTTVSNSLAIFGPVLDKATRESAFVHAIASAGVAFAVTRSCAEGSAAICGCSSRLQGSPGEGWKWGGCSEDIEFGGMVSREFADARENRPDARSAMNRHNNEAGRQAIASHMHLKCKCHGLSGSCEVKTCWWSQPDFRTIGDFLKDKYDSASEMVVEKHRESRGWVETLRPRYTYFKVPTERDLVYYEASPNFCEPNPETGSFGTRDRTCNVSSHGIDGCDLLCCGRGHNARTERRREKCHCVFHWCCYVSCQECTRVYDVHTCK

[16] = target: T5, Hepatocyte nuclear factor 4-alpha (Homo sapiens, UniProt P41235); format: functional, cell-based;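 also: biochemical luminescence-based dose-response counterscreen measuring inhibition of HNF4 dimerization, run alongside a screen for blockers of ABHD5–perilipin-5 interaction; split luciferase complementation of HNF4 fusion proteins in cell lysate measuring dimerization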
T5 sequence (P41235 whole entry): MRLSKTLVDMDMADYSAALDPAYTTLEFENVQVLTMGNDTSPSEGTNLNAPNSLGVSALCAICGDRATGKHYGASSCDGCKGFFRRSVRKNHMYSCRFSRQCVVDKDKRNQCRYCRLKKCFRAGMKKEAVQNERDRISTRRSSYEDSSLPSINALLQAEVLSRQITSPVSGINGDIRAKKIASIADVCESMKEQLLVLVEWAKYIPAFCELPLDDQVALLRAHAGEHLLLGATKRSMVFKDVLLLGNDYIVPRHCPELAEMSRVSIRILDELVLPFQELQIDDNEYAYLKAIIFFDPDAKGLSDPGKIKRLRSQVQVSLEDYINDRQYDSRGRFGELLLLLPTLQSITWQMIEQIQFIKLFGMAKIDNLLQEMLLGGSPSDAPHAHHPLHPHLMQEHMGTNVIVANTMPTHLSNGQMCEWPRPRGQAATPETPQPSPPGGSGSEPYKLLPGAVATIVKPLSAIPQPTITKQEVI

Genome polyprotein = Genome polyprotein (dengue virus type 2, UniProt P29990); assay: Dengue-2 NS5 methyltransferase inhibitors, primary screen, biochemical, confirmation dose response (AID 588689); format: functional
Genome polyprotein, sequence (P29990 2492-3391 limits assumed): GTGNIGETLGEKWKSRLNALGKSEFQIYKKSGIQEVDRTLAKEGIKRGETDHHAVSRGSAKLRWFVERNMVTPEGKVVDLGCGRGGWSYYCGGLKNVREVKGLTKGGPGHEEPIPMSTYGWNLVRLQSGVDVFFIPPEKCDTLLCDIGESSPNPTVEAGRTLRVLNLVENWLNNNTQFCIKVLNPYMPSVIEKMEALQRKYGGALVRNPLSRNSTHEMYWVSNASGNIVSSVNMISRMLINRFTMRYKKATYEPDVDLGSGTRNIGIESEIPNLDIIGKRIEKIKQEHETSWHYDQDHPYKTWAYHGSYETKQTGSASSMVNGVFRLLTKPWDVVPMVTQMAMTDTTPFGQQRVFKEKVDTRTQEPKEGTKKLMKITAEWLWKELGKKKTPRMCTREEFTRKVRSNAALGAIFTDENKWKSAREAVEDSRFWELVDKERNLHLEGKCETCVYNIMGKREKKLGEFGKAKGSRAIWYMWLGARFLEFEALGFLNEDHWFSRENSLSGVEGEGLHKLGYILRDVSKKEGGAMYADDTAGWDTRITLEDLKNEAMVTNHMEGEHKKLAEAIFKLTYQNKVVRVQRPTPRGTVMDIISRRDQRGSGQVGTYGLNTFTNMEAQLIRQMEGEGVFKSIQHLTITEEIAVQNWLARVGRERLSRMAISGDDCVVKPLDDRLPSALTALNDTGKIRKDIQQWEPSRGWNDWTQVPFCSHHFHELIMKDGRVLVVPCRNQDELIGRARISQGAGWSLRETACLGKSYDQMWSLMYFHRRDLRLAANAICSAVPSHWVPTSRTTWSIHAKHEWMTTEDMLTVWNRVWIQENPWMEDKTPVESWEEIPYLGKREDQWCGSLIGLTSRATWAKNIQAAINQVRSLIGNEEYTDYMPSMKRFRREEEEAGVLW

Vero = Vero cell cytotoxicity, cytotoxicity control for flavivirus capping enzyme inhibitors (AID 588742); format: functional; conditions: Chlorocebus sabaeus
Beta-galactosidase = Beta-galactosidase (Escherichia coli, UniProt Q8VNN2); assay: Dose response counterscreen for EBI2 assay utilizing the enzyme, b-galactosidase.; format: functional
Beta-galactosidase, sequence (Q8VNN2 whole entry): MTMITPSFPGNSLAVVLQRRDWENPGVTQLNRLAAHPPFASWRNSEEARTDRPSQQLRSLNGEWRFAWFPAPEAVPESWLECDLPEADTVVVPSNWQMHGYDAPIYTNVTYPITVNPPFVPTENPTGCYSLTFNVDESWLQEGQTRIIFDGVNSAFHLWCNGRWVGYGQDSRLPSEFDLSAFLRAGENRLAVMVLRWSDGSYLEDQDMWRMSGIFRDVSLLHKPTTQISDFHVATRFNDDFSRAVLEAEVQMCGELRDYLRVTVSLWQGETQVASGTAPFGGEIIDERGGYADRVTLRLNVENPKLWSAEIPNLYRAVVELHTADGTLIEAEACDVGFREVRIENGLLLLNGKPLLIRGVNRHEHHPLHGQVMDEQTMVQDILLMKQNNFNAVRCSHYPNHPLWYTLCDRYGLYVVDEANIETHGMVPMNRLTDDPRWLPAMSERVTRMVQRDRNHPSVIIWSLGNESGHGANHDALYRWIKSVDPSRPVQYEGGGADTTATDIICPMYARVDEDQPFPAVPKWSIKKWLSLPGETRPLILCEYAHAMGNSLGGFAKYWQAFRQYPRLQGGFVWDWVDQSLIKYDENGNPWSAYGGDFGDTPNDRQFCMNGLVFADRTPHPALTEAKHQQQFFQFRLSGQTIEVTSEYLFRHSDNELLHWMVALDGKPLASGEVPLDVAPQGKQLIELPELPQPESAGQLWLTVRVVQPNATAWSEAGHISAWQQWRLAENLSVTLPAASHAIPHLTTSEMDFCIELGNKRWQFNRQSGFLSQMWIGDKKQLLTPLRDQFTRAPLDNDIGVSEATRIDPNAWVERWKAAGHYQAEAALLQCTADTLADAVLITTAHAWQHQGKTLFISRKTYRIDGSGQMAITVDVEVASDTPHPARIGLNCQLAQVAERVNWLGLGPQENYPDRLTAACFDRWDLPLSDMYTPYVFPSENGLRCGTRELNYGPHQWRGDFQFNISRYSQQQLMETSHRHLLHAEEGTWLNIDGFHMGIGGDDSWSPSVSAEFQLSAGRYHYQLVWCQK

[17] = non-specific cell cytotoxicity, dose response, cytotoxicity control for PAX8 inhibitor project, plate reader, dry powder samples (AID 743021); format: functional, cell-based
[18] = target: T6, Ubiquitin-conjugating enzyme E2 N (Homo sapiens, UniProt P61088); format: functional;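 also: Dose-response confirmation in a TR-FRET assay detecting UBC13-driven polyubiquitin chain formation, inhibition measured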
T6 sequence (P61088 whole entry): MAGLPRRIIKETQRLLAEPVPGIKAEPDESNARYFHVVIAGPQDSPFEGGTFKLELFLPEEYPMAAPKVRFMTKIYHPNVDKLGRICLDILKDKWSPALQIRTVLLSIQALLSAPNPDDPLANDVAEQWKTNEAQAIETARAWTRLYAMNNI

[19] = miR-122 activators in hepatoma reporter cells, dose response, cell-based, Huh7 psiCHECK-miR122, Renilla luciferase, cherry-picked (AID 651956); format: functional;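 also: huh7 hepatoma cells stably carrying a psiCHECK-2 miR-122 sensor plasmid; renilla luciferase signal reporting endogenous miR-122 activity after 48 h compound exposure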
[20] = target: T7, Long-chain-fatty-acid--AMP ligase FadD28 (Mycobacterium tuberculosis, UniProt P9WQ59); assay: Fluorescence polarization aasay to screen for inhibitors that compete for the binding of FadD28 to a bisubstrate Measured in Biochemical System Using Plate Reader - 2147-01_Inhibitor_Dose_CherryPick_Activity.; format: functional, Mycobacterium tuberculosis H37Rv
T7 sequence (P9WQ59 whole entry): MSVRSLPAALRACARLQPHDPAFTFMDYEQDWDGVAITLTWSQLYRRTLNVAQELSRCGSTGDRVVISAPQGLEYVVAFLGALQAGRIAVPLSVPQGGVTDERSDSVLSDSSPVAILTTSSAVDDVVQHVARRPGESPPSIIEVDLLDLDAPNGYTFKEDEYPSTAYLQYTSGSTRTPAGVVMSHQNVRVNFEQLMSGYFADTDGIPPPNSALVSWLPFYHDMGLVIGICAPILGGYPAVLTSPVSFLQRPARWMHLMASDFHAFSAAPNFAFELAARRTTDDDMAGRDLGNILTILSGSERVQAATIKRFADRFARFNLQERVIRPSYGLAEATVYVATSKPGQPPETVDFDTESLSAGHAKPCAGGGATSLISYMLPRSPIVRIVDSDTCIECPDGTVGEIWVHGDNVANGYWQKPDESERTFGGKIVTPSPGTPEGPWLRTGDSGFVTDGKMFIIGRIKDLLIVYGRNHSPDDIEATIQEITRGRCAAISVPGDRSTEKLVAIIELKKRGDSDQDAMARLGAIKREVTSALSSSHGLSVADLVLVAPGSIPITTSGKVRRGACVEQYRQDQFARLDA

FC(F)(F)c1nnc2c(Sc3ccc(Cl)cc3)nc3ccccc3n12
EC50 (BJ [1]): 5.54 µM (inconclusive)
EC50 (BJ [2]): 25.2 µM (active)
EC50 (BJ [3]): 3.28 µM (inconclusive)
EC50 [4]: 21.7 µM (not active)
EC50 [5]: > 120 µM (not active)
EC50 [6]: 32.3 µM (not active)
EC50 [7]: 9.77 µM (active)
EC50 [8]: 9.34 µM (inconclusive)
EC50 [9]: 24.3 µM (not active)
AC50 (Cytochrome P450 3A4): inconclusive
AC50 (Paired box protein Pax-8): 1.27 µM (active)
EC50 [10]: > 120 µM (not active)
EC50 (BJ [11]): 0.565 µM (active)

O=C(c1ccccc1)[C@@H]1[C@@H]2C(=O)N(c3ccc(F)cc3)C(=O)[C@@H]2C2CCCN21 (stereo not given in full)
EC50 [12]: 40.9 µM (active)
EC50 [13]: 37.9 µM (active)
IC50 [14]: 7.78 µM (active)

c1ccc(CCSc2nccn2-c2ccccc2)cc1
EC50 [15]: > 67.6 µM (inactive)

CC[n+]1ccn(C)c1P(c1ccccc1)c1ccccc1
IC50 (Protein Wnt-3a): 6.99 µM (active)

CCC(C(=O)OCCN(CC)CC)c1ccccc1 (stereo not given)
IC50 [16]: 23.9 µM (inactive)

CCCCCCCCn1c(=O)c(C(=O)OCC)c(O)c2ccccc21
IC50 (Genome polyprotein): 77.2 µM (active)
CC50 (Vero): > 40 µM (active)

Cc1occc1-c1nnc(SCC(=O)NCCc2ccccc2)n1Cc1ccccc1
IC50 (Beta-galactosidase): > 80 µM (inactive)

CCC[C@H](CN[C@@H](CNC)[C@H](C)CC)NCCc1cc(C(F)(F)F)cc(C(F)(F)F)c1
EC50 [5]: 7.09 µM (active)
EC50 [7]: 9.67 µM (active)
AC50 (Paired box protein Pax-8): 9.95 µM (active)
AC50 [17]: 22.1 µM (active)
EC50 [10]: 8.3 µM (active)
IC50 [18]: > 20 µM (inactive)

O=C(N[C@@H]1C/C=C\C[C@@H](CC(=O)N(CCO)Cc2ccccc2)C(=O)N[C@@H](c2ccccc2)COC1=O)OCC1c2ccccc2-c2ccccc21
IC50 (Protein Wnt-3a): 12.3 µM (active)

CN(C)CCNc1ncnc2c1ncn2[C@H]1CN(Cc2cccnc2)C[C@@H](CO)O1
EC50 [15]: > 67.5 µM (inactive)

CCS(=O)(=O)Nc1ccc2c(c1)C(=O)N(C)C[C@@H](OC)[C@H](C)CN(CC1CCCC1)[C@H](C)CO2
AC50 [19]: 23.6 µM (active)

Cc1cccc(C)c1NC(=O)C(c1ccccc1)n1c(=O)c(-c2ccco2)nc2ccccc21 (stereo not given)
IC50 [16]: 3.81 µM (active)

CC(C)(C)NC(=O)C(c1cccc2ccccc12)n1c(=O)c(-c2ccco2)nc2ccccc21 (stereo not given)
IC50 [16]: 2.27 µM (active)

CC(=Nc1ccc(Cl)cc1N)c1c(O)cc(C)oc1=O
EC50 [15]: > 67.6 µM (inactive)

O=C(N/N=C/c1c[nH]c2ccccc12)c1cc(Cl)ccc1O
AC50 [20]: 9.8 µM (active)
